Data on three compounds can be found in US10440955B2, “Methods comprising a biocidal polyamine” (Curza Global, LLC, priority 2013, dated 2019).

Several values for one entry are separate records, joined by “and”; a condition that tells them apart may be missing. Identical values can stand only once. Counter-ions that a name gives are not always drawn.

The subject of one experiment is P. aeruginosa biofilms. Briefly: MBEC, MBEC Inoculation Tray (Innovotech), to 10^2 CFU/peg in 24 hours. Type of experiment: cell-based. To be noted: Pseudomonas aeruginosa; Table 3A c5; group head missing, probably MBEC; read-out: MICs (μg/mL): P. aeruginosa (second P. aeruginosa). The source says:
To determine the MBEC of each polyamine compound, the MBEC Inoculation Tray by Innovotech, formerly known as the Calgary biofilm device, was used. Within this device, biofilms grow on the surface of polystyrene pegs, 96 of which are attached to a lid. These pegs are inserted into a flat bottom 96-well plate. In this instance, the MBEC of a molecule was defined as the concentration of compound (in μg/mL) required to reduce 10^5 or 10^6 CFU/peg (biofilm levels varied by isolate) to 10^2 CFU/peg in a 24-hour period.
Following the manufacturer's guidelines, biofilms were grown on the surface of each peg by first making a 0.5 McFarland of each isolate. The 0.5 McFarland was diluted 1:100 in CAMHB. Into each well of a flat bottom 96-well plate, 150 μL of broth were pipetted. The plate was shaken at 100 rpm for 24 hours (P. aeruginosa and A. baumannii) or 48 hours (MRSA). The pegs were then placed into a separate flat bottom 96-well plate for 10 seconds with 200 μL of phosphate buffered saline (PBS) in each well to remove nonadherent cells. The lid was then placed into a 96-well plate that contained varying concentrations of antimicrobial with 200 μL per well. The plate was incubated for 24 hours at 37° C. after which time 100 μL of broth were plated on TSA. TSA plates were incubated 24 hours at 37° C. and the number of CFU counted to calculate the CFU/peg. […]

A further experiment concerns MRSA biofilm. Briefly: MBEC assay (Calgary Biofilm Device), eradication of 100% of detectable biofilm (Example 2). It is filed as cell-based, Staphylococcus aureus. To be noted: eradicate 100% of detectable biofilm. The method, then: In addition to determining the MIC, the minimum biofilm eradication concentration (MBEC) of PBC-51 was also determined. The MBEC was determined using the MBEC assay, formerly known as the Calgary Biofilm Device, developed by Innovotech. In this instance, the MBEC was defined as the amount of antimicrobial required to eradicate 100% of detectable biofilm after being grown in the MBEC device. To grow the biofilms within this device, 150 μL of solution containing a concentration of 10^5 cells/mL were inoculated into each well of a 96-well plate. A lid containing 96 pegs was placed onto the plate and incubated for 24 hours at 37° C. while being shaken at 110 rpm. Biofilms developed on the surface of the polystyrene pegs within the 96-well plate. After 24 hours, each peg contained between 10^5 and 10^6 cells in well-established biofilms. The lid with pegs was transferred to a 96-well plate that contained 200 μL of varying concentrations of the compound and was incubated at 37° C. for an additional 24 hours. The plate was then sonicated, and the biofilms quantified using a 10-fold dilution series to determine the MBEC.

Another experiment has as its system MRSA. Briefly: MIC, microdilution CLSI M26-A (Example 2). Type of experiment: cell-based. To be noted: Staphylococcus aureus, 24 h, read-out: MIC (μg/mL/μM). The method, then:
The second test determined the minimum inhibitory concentration (MIC) of the compound against MRSA and P. aeruginosa ATCC 27853. […] This definition was consistent with the Clinical and Laboratory Standards Institute (CLSI). More specifically, the microdilution method as outlined in the M26-A CLSI guideline was used. All tests were performed with cation adjusted Mueller Hinton broth.

Another experiment has as its system MRSA biofilms. Kind of experiment: EBEC, biofilms on PEEK membranes, eradication of all detectable bacteria (Example 2). To be noted: ~2×10^11 cells per PEEK membrane, eradicate all detectable bacteria. Type of experiment: cell-based, Staphylococcus aureus. The method, then: The fourth test that was performed was the effective biofilm eradication concentration (EBEC). To determine the EBEC, biofilms of MRSA and P. aeruginosa ATCC 27853 were grown on the surface of PEEK membranes using a previously established protocol. Briefly, 500 mL of brain heart infusion (BHI) broth were inoculated with 10^5 cells/mL of MRSA or P. aeruginosa. BHI broth was placed into a membrane biofilm reactor and placed on a hot plate set at 34° C. for 24 hours with a stir bar rotating at 130 rpm. Following the initial 24-hour growth period, a 10% BHI broth solution was flowed through the reactor at a rate of 6.944 mL/min for another 24 hours. After 48 hours of growth, each PEEK membrane had biofilm growth on it. In this experiment, there were ˜2×10^11 cells of MRSA per PEEK membrane and ˜2×10^10 cells of P. aeruginosa per PEEK membrane. The EBEC was defined as the concentration of the compound that was required to eradicate all detectable amounts (100%) of bacteria within the biofilms.

Experiment [1] relates to various bacterial cell cultures. Briefly: Antimicrobial activity of polyamines in hydrogel on agar lawns. It is filed as cell-based. To be noted: 0.5% CZ compound in 0.5% sodium hyaluronate gel, 500 uL on TSA lawn, 37 C for 24 hours. The method, then:
A 0.5 McFarland standard of each bacteria was made, then individual lawns of bacteria spread onto the surface of tryptic soy agar (TSA). 500 uL of the suspended gel were placed on the center of each lawn. Plates were incubated at 37 C for 24 hours, then imaged. Images of the resulting gels are shown in FIGS. 30A to 30I show the effects of the polyamines CZ-86, CZ-100, and CZ-110 on various bacterial cell cultures.
The hydrogel that was used for those images is a LifeCore gel with 1% sodium hyaluronate (1% Sodium Hyaluronate Solution Part #82). The CZ compound was suspended in water at 1% (w/w) concentration and combined with the LifeCore gel 1:1 for a final product that contained 0.5% sodium hyaluronate and 0.5% CZ compound.

Regarding `NCCCNCCCNCc1ccccc1` [CZ-7, benzylnorspermidine], in the experiment on P. aeruginosa biofilms, the MIC was above 5000 µg/mL.
Regarding `CN[C@H](CC(C)C)C(=O)N[C@H]1C(=O)N[C@@H](CC(N)=O)C(=O)N[C@H]2C(=O)N[C@H]3C(=O)N[C@H](C(=O)N[C@H](C(=O)O)c4cc(O)cc(O)c4-c4cc3ccc4O)[C@H](O)c3ccc(c(Cl)c3)Oc3cc2cc(c3O[C@@H]2O[C@H](CO)[C@@H](O)[C@H](O)[C@H]2O[C@H]2C[C@](C)(N)[C@H](O)[C@H](C)O2)Oc2ccc(cc2Cl)[C@H]1O` [vancomycin, reference compound], the “MBEC (μg/mL/μM)” value with MRSA biofilm is > 500 μg/mL and > 336.50 μM. Moreover, the MIC in the experiment on MRSA is 10 µg/mL and 6.73 µM. In addition, the “EBEC (μg/mL/μM)” value in the experiment on MRSA biofilms is > 20,000 μg/mL and > 13,460 μM.
For `CC(C)CNCCCNCCCNCc1cc(CNCCCNCCCNCC(C)C)cc(-c2ccccc2)c1` [CZ-86, N^1,N^1′-([1,1′-biphenyl]-3,5-diylbis(methylene))bis(N^3-(3-(isobutylamino)propyl)propane-1,3-diamine), hydrochloride salt], the “zones of inhibition in bacterial lawns” value in experiment [1] is “created zones of inhibition”.
